The values below come from US8258114B2, “Modulation of glucose-6-phosphatase translocase expression” (Isis Pharmaceuticals, Inc., priority 2004, dated 2012).

Oligonucleotides are written 5' to 3', each unit as a sugar letter and its base; * is a phosphorothioate linkage, no mark a phosphodiester; rarer units and linkages stand in square brackets, end groups in braces. Plain capitals give the bases only. e = 2'-O-(2-methoxyethyl) (MOE); [5mC] = 5-methylcytosine; d = 2'-deoxy (DNA)

The subject of the series is mouse glucose-6-phosphatase translocase mRNA. In words: Antisense inhibition of mouse glucose-6-phosphatase translocase mRNA in primary mouse hepatocytes, 150 nM, LIPOFECTIN (Table 22). It counts as cell-based. As to conditions: real-time PCR. The method, then: Primary mouse hepatocytes were prepared from CD-1 mice purchased from Charles River Labs. Primary mouse hepatocytes were routinely cultured in Hepatocyte Attachment Media supplemented with 10% fetal bovine serum (Invitrogen Life Technologies, Carlsbad, Calif.), 250 nM dexamethasone, and 10 nM bovine insulin (Sigma-Aldrich, St. Louis, Mo.). Cells were seeded into 96-well plates (Falcon-Primaria #353872, BD Biosciences, Bedford, Mass.) at a density of approximately 4,000-6,000 cells/well for use in oligomeric compound transfection experiments.
When cells reached 65-75% confluency, they were treated with oligonucleotide. Oligonucleotide was mixed with LIPOFECTIN™ Invitrogen Life Technologies, Carlsbad, Calif.) in Opti-MEM™-1 reduced serum medium (Invitrogen Life Technologies, Carlsbad, Calif.) to achieve the desired concentration of oligonucleotide and a LIPOFECTIN™ concentration of 2.5 or 3 μg/mL per 100 nM oligonucleotide. This transfection mixture was incubated at room temperature for approximately 0.5 hours. For cells grown in 96-well plates, wells were washed once with 100 μL OPTI-MEM™-1 and then treated with 130 μL of the transfection mixture. Cells grown in 24-well plates or other standard tissue culture plates are treated similarly, using appropriate volumes of medium and oligonucleotide. Cells are treated and data are obtained in duplicate or triplicate. After approximately 4-7 hours of treatment at 37° C., the medium containing the transfection mixture was replaced with fresh culture medium. Cells were harvested 16-24 hours after oligonucleotide treatment.
Quantitation of glucose 6-phosphatase translocase mRNA levels was accomplished by real-time quantitative PCR using the ABI PRISM™ 7600, 7700, or 7900 Sequence Detection System (PE-Applied Biosystems, Foster City, Calif.) according to manufacturer's instructions.
Prior to quantitative PCR analysis, primer-probe sets specific to the target gene being measured were evaluated for their ability to be “multiplexed” with a GAPDH amplification reaction. After isolation the RNA is subjected to sequential reverse transcriptase (RT) reaction and real-time PCR, both of which are performed in the same well. RT and PCR reagents were obtained from Invitrogen Life Technologies (Carlsbad, Calif.). […] The RT reaction was carried out by incubation for 30 minutes at 48° C. Following a 10 minute incubation at 95° C. to activate the PLATINUM® Taq, 40 cycles of a two-step PCR protocol were carried out: 95° C. for 15 seconds (denaturation) followed by 60° C. for 1.5 minutes (annealing/extension).
Gene target quantities obtained by RT, real-time PCR were normalized using either the expression level of GAPDH, a gene whose expression is constant, or by quantifying total RNA using RiboGreen™ (Molecular Probes, Inc. Eugene, Oreg.). GAPDH expression was quantified by RT, real-time PCR, by being run simultaneously with the target, multiplexing, or separately. Total RNA was quantified using RiboGreen™ RNA quantification reagent (Molecular Probes, Inc. Eugene, Oreg.).
A series of oligomeric compounds was designed to target different regions of mouse glucose-6-phosphatase translocase, using published sequences cited in Table 1. All compounds in Table 22 are chimeric oligonucleotides (“gapmers”) 20 nucleotides in length, composed of a central “gap” region consisting of 10 2′-deoxynucleotides, which is flanked on both sides (5′ and 3′) by five-nucleotide “wings”. The wings are composed of 2′-O-(2-methoxyethyl) nucleotides, also known as 2′-MOE nucleotides. The internucleoside (backbone) linkages are phosphorothioate throughout the oligonucleotide. All cytidine residues are 5-methylcytidines. The compounds were analyzed for their effect on gene target mRNA levels by quantitative real-time PCR as described in other examples herein, using the following primer-probe set designed to hybridize to mouse glucose-6-phosphatase translocase: • forward primer: […]
(Real-time PCR tracks product formation cycle by cycle.)
In the case of “145691 (antisense eT*eG*eT*e[5mC]*eT*dG*dA*d[5mC]*dA*dG*dG*dT*dA*dA*d[5mC]*e[5mC]*eA*eG*e[5mC]*eT) [compound 145691]”, the “% Inhib of mouse glucose-6-phosphatase translocase mRNA levels” value (“% Inhib” below) is given as 30%. For “145651 (antisense eG*eT*eA*eG*eA*dA*dA*dA*dA*dG*d[5mC]*dT*dG*dG*d[5mC]*e[5mC]*e[5mC]*eT*eG*e[5mC]) [compound 145651]”, the “% Inhib” value was 31%.

“145718 (e[5mC]*eA*eA*eT*eT*dT*dT*dG*d[5mC]*d[5mC]*d[5mC]*d[5mC]*d[5mC]*dT*dG*e[5mC]*e[5mC]*eA*eA*eG; antisense) [compound 145718]”: the “% Inhib” value was 26%.

With “145687 (antisense e[5mC]*eT*e[5mC]*e[5mC]*eT*dG*dG*dA*dT*dA*dA*dG*dG*dA*dA*eG*eA*eA*e[5mC]*eT) [compound 145687]”, the “% Inhib” value was 12%.

In the case of “145701 (eA*eG*eT*eG*e[5mC]*dT*dT*dG*dG*d[5mC]*dA*dA*dT*dG*dG*eT*eG*e[5mC]*eT*eG; antisense) [compound 145701]”, the “% Inhib” value came to 54%.

On to “145665 (antisense e[5mC]*e[5mC]*eA*eG*e[5mC]*d[5mC]*dA*dG*dG*dT*dT*d[5mC]*dA*dT*dG*e[5mC]*eT*eG*eG*eT) [compound 145665]”, for which the “% Inhib” value stood at 22%. As to “145696 (e[5mC]*eT*e[5mC]*e[5mC]*eA*dA*dA*d[5mC]*dA*dA*dG*dG*d[5mC]*dA*dA*eT*eG*eG*eG*eA; antisense) [compound 145696]”, the “% Inhib” value was 37%. Consider “145681 (antisense e[5mC]*eT*e[5mC]*eT*e[5mC]*d[5mC]*dT*d[5mC]*d[5mC]*dT*dT*d[5mC]*dA*dA*dG*eG*eA*eG*e[5mC]*e[5mC]) [compound 145681]”, for which the “% Inhib” value stood at 36%. Regarding “145663 (antisense eT*eT*eG*eA*e[5mC]*dA*dA*d[5mC]*dA*d[5mC]*dA*dG*d[5mC]*d[5mC]*d[5mC]*eA*e[5mC]*e[5mC]*eA*eA) [compound 145663]”, the “% Inhib” value was determined as 48%. Turning to “145690 (antisense e[5mC]*eT*e[5mC]*e[5mC]*eG*dA*d[5mC]*d[5mC]*dT*d[5mC]*dG*dA*dG*dG*dG*e[5mC]*eA*e[5mC]*eT*eG) [compound 145690]”, the “% Inhib” value amounted to 56%. Turning to “145716 (e[5mC]*e[5mC]*e[5mC]*eT*eG*dA*dA*dT*dT*d[5mC]*dA*dG*dG*dA*dG*eT*eT*eG*e[5mC]*e[5mC]; antisense) [compound 145716]”, the “% Inhib” value stood at 52%. For “145669 (antisense e[5mC]*eA*e[5mC]*eA*eG*dT*dG*d[5mC]*d[5mC]*d[5mC]*d[5mC]*dA*dG*dA*d[5mC]*eA*eG*eG*eG*e[5mC]) [compound 145669]”, the “% Inhib” value came out at 9%. To “145679 (antisense eT*e[5mC]*eA*eA*eG*dG*dA*dG*d[5mC]*d[5mC]*d[5mC]*dT*dT*d[5mC]*dT*eT*eG*e[5mC]*e[5mC]*e[5mC]) [compound 145679]” belongs 17%; to “145714 (eG*e[5mC]*e[5mC]*eA*e[5mC]*dT*dG*dG*dT*dA*dA*d[5mC]*dT*dT*dG*e[5mC]*eA*eG*e[5mC]*eA; antisense) [compound 145714]”, 66%; to “145672 (antisense eT*eG*eT*eG*eG*dA*dT*dG*dA*dG*d[5mC]*dA*dG*d[5mC]*dA*eG*eA*e[5mC]*eA*eG) [compound 145672]”, 8%. Take “145675 (antisense eA*eA*e[5mC]*eA*eT*d[5mC]*dA*dG*d[5mC]*dA*dG*dG*dT*dT*d[5mC]*eA*eT*eT*eG*eT) [compound 145675]”: the “% Inhib” value amounted to 23%.
